Publication PMC6397092 (Platelets, 2018)

Biological target: T1, PAR4 (protease-activated receptor 4) (Homo sapiens, UniProt Q96RI0)
T1 sequence (Q96RI0 48-385): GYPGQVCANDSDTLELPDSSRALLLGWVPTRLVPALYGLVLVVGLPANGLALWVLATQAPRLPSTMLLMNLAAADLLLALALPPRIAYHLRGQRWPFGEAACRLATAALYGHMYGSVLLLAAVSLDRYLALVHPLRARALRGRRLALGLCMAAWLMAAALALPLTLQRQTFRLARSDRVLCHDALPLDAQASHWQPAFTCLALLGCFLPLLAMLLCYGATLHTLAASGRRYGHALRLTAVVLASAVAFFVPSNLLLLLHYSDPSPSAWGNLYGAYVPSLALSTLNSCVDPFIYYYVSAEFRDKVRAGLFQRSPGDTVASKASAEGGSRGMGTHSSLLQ
Assay: inhibition of human platelet activation by […] gamma-thrombin
Format: cell-based

With VU0661245 the IC50 was 8.42 nM.
